What was measured:
[1] = biological target: T1, HMW-uPA (Homo sapiens, UniProt P00749); assay: Inhibition of purified HMW-uPA; type: biochemical; details: purified enzyme, pH 7.5, 25°C
T1 construct: purchased Choay
Protocol: (§1) Bovine α-CT and LMW-uPA (MW=33 000 Da) were purchased from Sigma, HMW-uPA (MW=54 000 Da) from Choay, trypsin (TRY) and THR from Boehringer-Indelheim (Germany), and MMP-2 and MMP-9 from Calbiochem. Human leucocyte elastase and PM were from Elastase Products Co. and Biogenic, respectively. Except for THR, HMW-uPA, MMP-2 and MMP-9, enzyme concentrations were determined by active-site titrations using the appropriate titrant ([Bender et al, 1966]; [Chase and Shaw, 1970]; [Powers and Gupton, 1977]). Several enzymes were assayed spectrophotometrically at 405 nm using the following p-nitroanilide substrates: succininyl-Ala2-Pro-Phe-p-nitroanilide (Suc-AAPF-p-NA), benzoyl-Arg-p-nitroanilide (Bz-R-p-NA) and methoxysuccinyl-Ala2-Pro-Val-p-nitroanilide (MeO-Suc-AAPV-p-NA) for α-CT, TRY and HLE, respectively (obtained from Sigma); or S-2238 ([…]), S-2444 (<Glu-Gly-Arg-p-nitroanilide) and S-2251 (H-D-Val-Leu-Lys-p-nitroanilide) for THR, HMW- and LMW-uPA, and PM, respectively (from Biogenic). Matrix metalloprotease-2 previously activated by treatment with APMA were assayed at 412 nm with the thiopeptide Ac-Pro-Leu-Gly-^Sleu-Leu-Gly-Oet in the presence of 5,5′-dithiobis(2-nitrobenzenic) acid (DTNB). […]

[2] = system: HT1080 fibrosarcoma cells; assay: Chemotaxis assay, uncoated Transwell inserts; type: cell-based, human; details: Homo sapiens, HT-1080, 4 h, uncoated filters
Protocol: HT1080 cells exponentially growing in T-75 flasks (Nunc, Costar, Netherlands) were collected by trypsin–ethylenediaminetetraacetic acid treatment, washed with serum-containing medium and allowed to recover from trypsinisation for at least 30 min at 37°C. Cells were then washed twice in serum-free DMEM and diluted in the same medium supplemented with 0.1% bovine serum albumin (BSA, fraction V, Sigma, USA) to a cell density of 6 × 10^5 cells ml^−1.
The influence of coumarin derivatives (0.1, 1 and 10 μM) on HT1080 cell invasion and migration was assayed using Transwell cell culture inserts (Costar) and compared to the reference compound GI 129471 (1 μM), an MMP inhibitor ([Wheeler et al, 1998]).
For chemoinvasion assays, type IV collagen-coated membranes (see above) were used, whereas uncoated membranes were employed for chemotaxis assays. Lower wells of chambers were filled with DMEM supplemented with 20% FCS and 1% BSA (fraction V, ICN) as chemoattractant, in the presence or absence of coumarin derivative (final concentration 0.1, 1 and 10 μM) or GI 129471 (final concentration 1 μM). Cells (6 × 10^4) suspended in DMEM supplemented with 0.1% BSA (fraction V, ICN) were seeded in the upper wells. Chambers were subsequently incubated for 48 and 4 h for chemoinvasion and chemotaxis assays, respectively, in a humid atmosphere at 37°C (in order to maintain a chemotactic gradient, media from both lower and upper wells were renewed after 24 h). After incubation, filters were removed from the chambers, fixed in 4% paraformaldehyde for 15 min (4°C), permeabilised for 10 min in methanol (−20°C) and stained with Giemsa (4%) for 15 min. The upper surface of the filters was scrapped with a cotton swab and cells having reached the lower surface of the filters were visually counted using a light microscope (Vanox AH3, Olympus, Hamburg, Germany) at 20-fold magnification. Each assay was performed in triplicate. Results were expressed as percentages (±s.d.) of the migration of control cells.

[3] = biological target: T2, MMP-2 (Homo sapiens, UniProt P08253); assay: Inhibition of purified MMP-2; type: biochemical; details: purified enzyme, pH 7.5, 25°C
T2 construct: purchased Calbiochem
T2 sequence (P08253 110-660): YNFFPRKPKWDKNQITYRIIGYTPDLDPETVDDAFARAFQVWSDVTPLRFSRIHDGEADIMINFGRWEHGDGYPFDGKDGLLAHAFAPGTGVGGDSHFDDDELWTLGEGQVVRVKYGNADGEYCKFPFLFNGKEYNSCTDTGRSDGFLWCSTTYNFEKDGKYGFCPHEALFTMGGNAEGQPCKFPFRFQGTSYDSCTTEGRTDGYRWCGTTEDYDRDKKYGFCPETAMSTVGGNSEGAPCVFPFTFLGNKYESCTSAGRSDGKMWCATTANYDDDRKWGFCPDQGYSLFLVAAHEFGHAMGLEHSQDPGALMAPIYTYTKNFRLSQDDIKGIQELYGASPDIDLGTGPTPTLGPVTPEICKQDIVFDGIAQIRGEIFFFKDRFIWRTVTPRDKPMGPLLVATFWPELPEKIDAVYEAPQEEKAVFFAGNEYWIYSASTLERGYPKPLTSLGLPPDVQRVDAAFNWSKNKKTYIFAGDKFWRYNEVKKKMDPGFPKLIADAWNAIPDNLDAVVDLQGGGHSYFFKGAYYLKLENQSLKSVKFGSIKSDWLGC
Protocol: as §1

[4] = biological target: T3, MMP-9 (Homo sapiens, UniProt P14780); assay: Inhibition of purified MMP-9; type: biochemical; details: purified enzyme, pH 7.5, 25°C
T3 construct: purchased Calbiochem
T3 sequence (P14780 94-707, species assumed): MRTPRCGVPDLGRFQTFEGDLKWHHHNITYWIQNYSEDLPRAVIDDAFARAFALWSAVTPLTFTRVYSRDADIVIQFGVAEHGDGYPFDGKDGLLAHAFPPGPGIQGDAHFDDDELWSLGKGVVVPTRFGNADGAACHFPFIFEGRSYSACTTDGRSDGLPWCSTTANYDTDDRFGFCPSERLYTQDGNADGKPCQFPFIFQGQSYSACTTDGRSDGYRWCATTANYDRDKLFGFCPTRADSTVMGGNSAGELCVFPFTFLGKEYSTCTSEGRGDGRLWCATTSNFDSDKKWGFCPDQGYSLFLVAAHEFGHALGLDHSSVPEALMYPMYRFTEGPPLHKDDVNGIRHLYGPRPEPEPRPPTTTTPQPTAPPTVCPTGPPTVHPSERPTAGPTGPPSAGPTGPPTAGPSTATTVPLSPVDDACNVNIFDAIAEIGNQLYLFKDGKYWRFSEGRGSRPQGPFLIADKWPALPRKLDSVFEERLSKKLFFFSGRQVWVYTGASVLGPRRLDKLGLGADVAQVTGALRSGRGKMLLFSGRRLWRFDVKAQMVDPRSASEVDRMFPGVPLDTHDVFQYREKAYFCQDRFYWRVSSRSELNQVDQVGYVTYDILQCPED
Protocol: as §1

SMILES	inhibition of HMW-uPA [1]	inhibition at 0.1 µM ([2]; 0.1 μM) [%]	inhibition at 1 µM [2] [%]	inhibition at 10 µM ([2]; 10 μM) [%]	inhibition of MMP-2 [3]	inhibition of MMP-9 [4]
CC(=O)OCc1ccc2oc(=O)c(C(=O)Oc3cccc(Cl)c3)cc2c1 [compound 4, 3-chlorophenyl 6-acetoxymethyl-2-oxo-2H-1-benzopyran-3-carboxylate]	not affected	20	50	80	not affected	not affected
CC(=O)OCc1ccc2oc(=O)c(C(=O)Oc3cccc(Br)c3)cc2c1 [compound 7, 3-bromophenyl 6-acetoxy-methyl-2-oxo-2H-1-benzopyran-3-carboxylate]	not affected		~30		not affected	not affected

— paper PMC2376372, “3-Bromophenyl 6-acetoxymethyl-2-oxo-2H-1-benzopyran-3-carboxylate inhibits cancer cell invasion in vitro and tumour growth in vivo” (British Journal of Cancer, 2003)
